How the values were obtained:
Type in all cases: in vivo
[1] = tested on: bermudagrass (Cynodon dactylon); experiment: Test B pre-/postemergence plant response; conditions: for Bermudagrass plant response rating: 0 to 100 scale, 0 no effect
How it was run: (§1)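 Compound in solvent + surfactant applied pre-em (loam/sand) or post-em (plants 2–18 cm, peat medium); greenhouse hold 13–15 days; visual 0–100 control score.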

[2] = tested on: yellow nutsedge (Cyperus esculentus); experiment: Test B pre-/postemergence plant response; conditions: for Nutsedge, Yellow plant response rating: 0 to 100 scale
How it was run: as §1

[3] = tested on: pigweed (Amaranthus retroflexus); experiment: Test B pre-/postemergence plant response; conditions: for Pigweed plant response rating: 0 to 100 scale
How it was run: as §1

[4] = tested on: lambsquarters (Chenopodium album); experiment: Test B pre-/postemergence plant response; conditions: for Lambsquarters plant response rating: 0 to 100 scale
How it was run: as §1

[5] = tested on: wheat (Triticum aestivum); experiment: Test B pre-/postemergence plant response; conditions: for Wheat plant response rating: 0 to 100 scale
How it was run: as §1

[6] = tested on: downy bromegrass (Bromus tectorum); experiment: Test B pre-/postemergence plant response; conditions: for Bromegrass, Downy plant response rating: 0 to 100 scale
How it was run: as §1

[7] = tested on: Surinam grass (Brachiaria decumbens); experiment: Test B pre-/postemergence plant response; conditions: for Surinam Grass plant response rating: 0 to 100 scale
How it was run: as §1

[8] = tested on: woolly cupgrass (Eriochloa villosa); experiment: Test B pre-/postemergence plant response; conditions: for Cupgrass, Woolly plant response rating: 0 to 100 scale
How it was run: as §1

[9] = tested on: ducksalad (Heteranthera limosa); experiment: Test B flooded paddy test; conditions: for Plant response rating, Flood, Ducksalad: 250 g ai/ha, flooded paddy test, visual rating on 0 to 100 scale (0 no effect, 100 complete control) after 13 to 15 days; for Plant response rating, Ducksalad: Flood (flooded paddy test), 13 to 15 days; for Ducksalad plant response rating: Flood, 31 g ai/ha, scale 0 to 100 (0 no effect, 100 complete control)
How it was run: (§2)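 Ratings are visual, 0–100 (100 = complete control), taken versus untreated controls 13 to 15 days after treatment in the greenhouse. Compound went straight into paddy water held 3 cm above soil, applied to 2-leaf-stage plants of four species.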

rice (Oryza sativa) = experiment: Test B flooded paddy test; conditions: for Plant response rating, Flood, Rice: 250 g ai/ha, flooded paddy test, visual rating on 0 to 100 scale (0 no effect, 100 complete control) after 13 to 15 days; for Plant response rating, Rice: Flood (flooded paddy test), 13 to 15 days; for Rice plant response rating: Flood, 31 g ai/ha, scale 0 to 100 (0 no effect, 100 complete control)
How it was run: as §2

[10] = tested on: umbrella sedge (Cyperus difformis); experiment: Test B flooded paddy test; conditions: for Plant response rating, Flood, Sedge, Umbrella: 250 g ai/ha, flooded paddy test, visual rating on 0 to 100 scale (0 no effect, 100 complete control) after 13 to 15 days; for Plant response rating, Sedge, Umbrella: Flood (flooded paddy test), 13 to 15 days; for Sedge, Umbrella plant response rating: Flood, 31 g ai/ha, scale 0 to 100 (0 no effect, 100 complete control)
How it was run: as §2

[11] = tested on: barnyardgrass (Echinochloa crus-galli); experiment: Test B flooded paddy test; conditions: for Plant response rating, Flood, Barnyardgrass: 250 g ai/ha, flooded paddy test, visual rating on 0 to 100 scale (0 no effect, 100 complete control) after 13 to 15 days; for Plant response rating, Barnyardgrass: Flood (flooded paddy test), 13 to 15 days; for Barnyardgrass plant response rating: Flood, 31 g ai/ha, scale 0 to 100 (0 no effect, 100 complete control)
How it was run: as §2

[12] = Postemergence, 31 g ai/ha, 0 to 100 scale (0 no effect, 100 complete control)
[13] = Postemergence, 62 g ai/ha, scale 0 to 100 (0 no effect, 100 complete control)
[14] = Postemergence, 125 g ai/ha, scale 0 to 100 (0 no effect, 100 complete control)
[15] = Postemergence, 250 g ai/ha, scale 0 to 100 (0 no effect, 100 complete control), 13 to 15 days
[16] = Preemergence, 31 g ai/ha, scale 0 to 100 (0 no effect, 100 complete control)
[17] = Preemergence, 62 g ai/ha, scale 0 to 100 (0 no effect, 100 complete control)
[18] = Preemergence, 125 g ai/ha, scale 0 to 100, 0 no effect, 100 complete control
[19] = Preemergence, 250 g ai/ha, 100 complete control
[20] = 62 g ai/ha, scale of 0 to 100 where 0 is no effect and 100 is complete control
[21] = 125 g ai/ha, scale 0 to 100, 0 is no effect, 100 is complete control

COc1ccc(-n2c(-c3ccccc3)ncc(C(=O)C3=C(O)CCCC3=O)c2=O)cc1OC [Compound 218]
0: Plant response rating, Wheat [5, 12] | Plant response rating, Wheat [5, 13] | Plant response rating, Wheat [5, 15] | Plant response rating, Wheat [5, 16] | Plant response rating, Wheat [5, 17] | Plant response rating, Wheat [5, 18] | Wheat plant response rating ([5]; Preemergence, 250 g ai/ha) | Plant response rating, Bromegrass, Downy [6, 16] | Plant response rating, Bromegrass, Downy [6, 17] | Plant response rating, Bromegrass, Downy [6, 18] | Bromegrass, Downy plant response rating ([6]; Preemergence, 250 g ai/ha) | Plant response rating, Cupgrass, Woolly [8, 16] | Plant response rating, Cupgrass, Woolly [8, 17] | Plant response rating, Rice (rice (Oryza sativa); [20]) | Rice plant response rating (rice (Oryza sativa)) | Plant response rating, Barnyardgrass [11, 20] | Barnyardgrass plant response rating [11]
45: Plant response rating, Nutsedge, Yellow [2, 16] | Plant response rating, Cupgrass, Woolly [8, 13]
95: Plant response rating, Bermudagrass [1, 14] | Plant response rating, Flood, Ducksalad [9]
15: Plant response rating, Nutsedge, Yellow [2, 13] | Plant response rating, Nutsedge, Yellow [2, 14] | Plant response rating, Bromegrass, Downy [6, 13] | Plant response rating, Flood, Rice (rice (Oryza sativa))
30: Plant response rating, Bromegrass, Downy [6, 15] | Plant response rating, Barnyardgrass [11, 21]
60: Plant response rating, Nutsedge, Yellow [2, 15] | Plant response rating, Cupgrass, Woolly [8, 14]
5: Plant response rating, Bromegrass, Downy [6, 12]
85: Cupgrass, Woolly plant response rating ([8]; Preemergence, 250 g ai/ha) | Plant response rating, Ducksalad [9, 21] | Plant response rating, Flood, Sedge, Umbrella [10] | Plant response rating, Sedge, Umbrella [10, 21]
75: Plant response rating, Nutsedge, Yellow [2, 17] | Plant response rating, Surinam Grass [7, 12] | Ducksalad plant response rating [9] | Sedge, Umbrella plant response rating [10]
20: Plant response rating, Bromegrass, Downy [6, 14]
100: Plant response rating, Bermudagrass [1, 15] | Plant response rating, Bermudagrass [1, 17] | Plant response rating, Bermudagrass [1, 18] | Bermudagrass plant response rating [1, 19] | Plant response rating, Pigweed [3, 12] | Plant response rating, Pigweed [3, 13] | Plant response rating, Pigweed [3, 15] | Plant response rating, Pigweed [3, 16] | Plant response rating, Pigweed [3, 17] | Plant response rating, Pigweed [3, 18] | Pigweed plant response rating ([3]; Preemergence, 250 g ai/ha) | Plant response rating, Lambsquarters [4, 14] | Plant response rating, Lambsquarters [4, 15] | Plant response rating, Lambsquarters [4, 16] | Plant response rating, Lambsquarters [4, 17] | Plant response rating, Lambsquarters [4, 18] | Lambsquarters plant response rating ([4]; Preemergence, 250 g ai/ha) | Surinam Grass plant response rating ([7]; Preemergence, 250 g ai/ha)
80: Plant response rating, Bermudagrass [1, 13] | Plant response rating, Surinam Grass [7, 13] | Plant response rating, Cupgrass, Woolly [8, 15] | Plant response rating, Ducksalad [9, 20] | Plant response rating, Sedge, Umbrella [10, 20]
70: Plant response rating, Bermudagrass [1, 12]
90: Plant response rating, Nutsedge, Yellow [2, 18] | Nutsedge, Yellow plant response rating ([2]; Preemergence, 250 g ai/ha) | Plant response rating, Surinam Grass [7, 15]
98: Plant response rating, Bermudagrass [1, 16] | Plant response rating, Lambsquarters [4, 12] | Plant response rating, Lambsquarters [4, 13] | Plant response rating, Surinam Grass [7, 18]
40: Plant response rating, Cupgrass, Woolly [8, 12] | Plant response rating, Flood, Barnyardgrass [11]
10: Plant response rating, Nutsedge, Yellow [2, 12] | Plant response rating, Surinam Grass [7, 16] | Plant response rating, Rice (rice (Oryza sativa); [21])
65: Plant response rating, Surinam Grass [7, 17] | Plant response rating, Cupgrass, Woolly [8, 18]

CCc1ccc(-n2c(-c3ccccc3)ncc(C(=O)C3=C(O)CCCC3=O)c2=O)cc1 [Compound 219]
75: Plant response rating, Flood, Rice (rice (Oryza sativa))
20: Bromegrass, Downy plant response rating ([6]; Preemergence, 250 g ai/ha) | Plant response rating, Cupgrass, Woolly [8, 18] | Plant response rating, Ducksalad [9, 20] | Sedge, Umbrella plant response rating [10] | Plant response rating, Barnyardgrass [11, 21]
98: Plant response rating, Bermudagrass [1, 13] | Plant response rating, Bermudagrass [1, 16] | Plant response rating, Cupgrass, Woolly [8, 15]
65: Plant response rating, Surinam Grass [7, 15] | Plant response rating, Ducksalad [9, 21]
25: Plant response rating, Surinam Grass [7, 13]
0: Plant response rating, Nutsedge, Yellow [2, 16] | Plant response rating, Wheat [5, 16] | Plant response rating, Wheat [5, 17] | Plant response rating, Wheat [5, 18] | Wheat plant response rating ([5]; Preemergence, 250 g ai/ha) | Plant response rating, Bromegrass, Downy [6, 16] | Plant response rating, Bromegrass, Downy [6, 17] | Plant response rating, Cupgrass, Woolly [8, 16] | Ducksalad plant response rating [9] | Plant response rating, Rice (rice (Oryza sativa); [20]) | Rice plant response rating (rice (Oryza sativa)) | Plant response rating, Barnyardgrass [11, 20] | Barnyardgrass plant response rating [11]
95: Plant response rating, Bermudagrass [1, 12] | Plant response rating, Cupgrass, Woolly [8, 14]
70: Plant response rating, Nutsedge, Yellow [2, 14] | Plant response rating, Rice (rice (Oryza sativa); [21])
90: Nutsedge, Yellow plant response rating ([2]; Preemergence, 250 g ai/ha) | Plant response rating, Flood, Ducksalad [9]
10: Plant response rating, Nutsedge, Yellow [2, 12] | Plant response rating, Bromegrass, Downy [6, 18] | Plant response rating, Surinam Grass [7, 12] | Plant response rating, Surinam Grass [7, 16] | Plant response rating, Surinam Grass [7, 17] | Plant response rating, Cupgrass, Woolly [8, 17]
60: Plant response rating, Sedge, Umbrella [10, 21] | Plant response rating, Flood, Barnyardgrass [11]
50: Plant response rating, Wheat [5, 13] | Plant response rating, Wheat [5, 15] | Plant response rating, Bromegrass, Downy [6, 13]
55: Plant response rating, Nutsedge, Yellow [2, 13]
80: Plant response rating, Bromegrass, Downy [6, 14] | Plant response rating, Bromegrass, Downy [6, 15] | Cupgrass, Woolly plant response rating ([8]; Preemergence, 250 g ai/ha)
40: Plant response rating, Wheat [5, 12] | Plant response rating, Sedge, Umbrella [10, 20]
100: Plant response rating, Bermudagrass [1, 14] | Plant response rating, Bermudagrass [1, 15] | Plant response rating, Bermudagrass [1, 17] | Plant response rating, Bermudagrass [1, 18] | Bermudagrass plant response rating [1, 19] | Plant response rating, Pigweed [3, 12] | Plant response rating, Pigweed [3, 13] | Plant response rating, Pigweed [3, 15] | Plant response rating, Pigweed [3, 16] | Plant response rating, Pigweed [3, 17] | Plant response rating, Pigweed [3, 18] | Pigweed plant response rating ([3]; Preemergence, 250 g ai/ha) | Plant response rating, Lambsquarters [4, 12] | Plant response rating, Lambsquarters [4, 13] | Plant response rating, Lambsquarters [4, 14] | Plant response rating, Lambsquarters [4, 15] | Plant response rating, Lambsquarters [4, 16] | Plant response rating, Lambsquarters [4, 17] | Plant response rating, Lambsquarters [4, 18] | Lambsquarters plant response rating ([4]; Preemergence, 250 g ai/ha) | Surinam Grass plant response rating ([7]; Preemergence, 250 g ai/ha)
45: Plant response rating, Nutsedge, Yellow [2, 17] | Plant response rating, Bromegrass, Downy [6, 12] | Plant response rating, Surinam Grass [7, 18]
85: Plant response rating, Nutsedge, Yellow [2, 15] | Plant response rating, Nutsedge, Yellow [2, 18] | Plant response rating, Cupgrass, Woolly [8, 12] | Plant response rating, Cupgrass, Woolly [8, 13] | Plant response rating, Flood, Sedge, Umbrella [10]

From US8952024B2, “Herbicidal pyrimidone derivatives” (E I du Pont de Nemours and Company, priority 2009, dated 2015)
